Measured values taken from US20110172297A1, “Oxopiperdinyl And Pyranyl Sulfonamides and Pharmaceutical Compositions Thereof” (Pfizer Inc, priority 2008, published 2011).

Test system: AMPA receptors
Assay: AMPA ES cell FLIPR screen (AMPA Potentiator Assay)
Type: cell-based
Conditions: murine ES cell-derived neurons, FLIPR Fluo-4 calcium signal, 32 uM AMPA challenge; values marked * are the geometric mean of 2-9 EC50 determinations
Protocol: The murine ES cell line used was E14-Sx1-16C, which has a targeted mutation in the Sox1 gene, a neuroectodermal marker, that offers G418 resistance when the Sox1 gene is expressed (Stem Cell Sciences). ES cells were maintained undifferentiated as previously described (Roach). […] ES cells were plated on gelatin-coated dishes (BD Biosciences), the media was changed daily and the cells were dissociated with 0.05% Trypsin EDTA (Invitrogen) every other day.
Embryoid Body Formation: Prior to embryoid body (EB) formation the ES cells were weaned from FBS onto Knockout Serum Replacement (KSR) (Invitrogen). To form EBs, ES cells were dissociated into a single cell suspension, then 3×10^6 cells were plated in bacteriology dishes (Nunc 4014) and grown as a suspension culture in NeuroEB-I medium that consisted of Knockout™ D-MEM (Invitrogen), supplemented with 10% KSR (Invitrogen), 0.2 mM L-Glutamine (Invitrogen), 0.1 mM MEM non-essential amino acids (Invitrogen), 30 μg/ml Gentamicin (Invitrogen), 1000 u/ml ESGRO (Chemicon), 0.1 mM 2-Mercaptoethanl (Sigma) and 150 ng/ml Transferrin (Invitrogen). The plates were put on a Stovall Belly Button shaker in an atmospheric oxygen incubator. The media was changed on day 2 of EB formation with NeuroEB-I and on day 4 with NeuroEB-II (NeuroEB-I plus 1 μg/ml mNoggin [R&D Systems]).
Neuronal Precursor Selection and Expansion: On day 5 of EB formation, EBs were dissociated with 0.05% Trypsin EDTA, and 4×10^6cells/100 mm dish were plated on Laminin coated tissue culture dishes in Neuroll-G418 medium that consisted of a base medium of a 1:1 mixture of D-MEM/F12 supplemented with N2 supplements and NeuroBasal Medium supplemented with B27 supplement and 0.1 mM L-Glutamine (all from Invitrogen). The base medium was then supplemented with 10 ng/ml bFGF (Invitrogen), 1 μg/ml mNoggin, 500 ng/ml SHH—N, 100 ng/ml FGF-8b (R&D Systems), 1 μg/ml Laminin and 200 μg/ml G418 (Invitrogen) for selection of neuronal precursors expressing Sox-1. The plates were put in an incubator that contained 2% Oxygen and were maintained in these conditions. During the 6-day selection period, the Neuroll media was changed daily. On day 6, the surviving neuronal precursor foci were dissociated with 0.05% Trypsin EDTA and the cells were plated at a density of 1.5×10^6 cells/100 mm Laminin coated dish in Neuroll-G418 medium. The cells were dissociated every other day for expansion, and prepared for Cryopreservation at passage 3 or 4. The crypreservation medium contained 50% KSR, 10% Dimethyl Sulfoxide (DMSO) (Sigma) and 40% Neurol-G418I medium. Neuronal precursors were crypreserved at a concentration of 4×10^6 cells/ml and 1 ml/cryovial in a controlled rate freezer overnight then transferred to an ultra-low freezer or liquid nitrogen for long-term storage.
Neuronal Differentiation: Cryopreserved ES cell-derived neuronal precursors were thawed by the rapid thaw method in a 37-degree water-bath. The cells were transferred from the cryovial to a 100 mm Laminin coated tissue culture dish that already contained Neuroll-G418 that had been equilibrated in a 2% Oxygen incubator. The media was changed with fresh Neuroll-G418 the next day. The cells were dissociated every other day as described above for expansion to generate enough cells to plate for the screen. For the screen, the cells were plated into 384-well poly-d-lysine coated tissue culture dishes (BD Biosciences) by the automated SelecT at a cell density of 6K cells/well in differentiation medium Neurolll that contained a 4:1 ratio of the NeuroBasalMedium/B27:D-MEM/F12/N2 supplemented with 1 μM cAMP (Sigma), 200 μM Ascorbic Acid (Sigma), 1 μg/ml Laminin (Invitrogen) and 10 ng/ml BDNF (R&D Systems). The plates were put in an incubator with 2% Oxygen and allowed to complete the differentiation process for 7 days. The cells could then be used over a 5-day period for the high throughput screen.
On the day of the assay, the FLIPR assay may be performed using the following methods: […]

Row | Structure (SMILES) | EC50 [µM]
1 | CC(C)S(=O)(=O)N[C@@H]1CCOC[C@@H]1c1ccc(-c2ccccc2)cc1 [Example 26, N-[(3R,4R)-3-biphenyl-4-yltetrahydro-2H-pyran-4-yl]propane-2-sulfonamide] | > 31.6
2 | CC(C)S(=O)(=O)N[C@@H]1COCC[C@H]1c1ccc(-c2ccccc2)cc1 [Example 15, N-[(3S,4S)-4-biphenyl-4-yltetrahydro-2H-pyran-3-yl]propane-2-sulfonamide] | > 31.6
3 | CC(C)S(=O)(=O)N[C@@H]1CCOC[C@H]1c1ccc(-c2ccccc2C#N)cc1 [Example 32, N-[(3S,4R)-3-(2′-cyanobiphenyl-4-yl)tetrahydro-2H-pyran-4-yl]propane-2-sulfonamide] | > 26.6
4 | CC(C)S(=O)(=O)N[C@@H]1CCOC[C@@H]1c1ccc(-c2ccc(C#N)s2)cc1 [Example 21, N-{(3R,4R)-3-[4-(5-cyano-2-thienyl)phenyl]tetrahydro-2H-pyran-4-yl}propane-2-sulfonamide] | > 31.6
5 | CCOc1ccccc1-c1ccc([C@H]2COCC[C@H]2NS(=O)(=O)C(C)C)cc1 [Example 28, N-[(3R,4R)-3-(2′-ethoxybiphenyl-4-yl)tetrahydro-2H-pyran-4-yl]propane-2-sulfonamide] | > 31.6
6 | CCOc1ccccc1-c1ccc([C@@H]2OCCC[C@H]2NS(=O)(=O)C(C)C)cc1 [Example 45, N-[(2S,3R)-2-(2′-ethoxybiphenyl-4-yl)tetrahydro-2H-pyran-3-yl]propane-2-sulfonamide] | > 9.61
7 | CC(C)S(=O)(=O)N[C@@H]1CCCO[C@H]1c1ccc(-c2ccc(C#N)s2)cc1 [Example 49, N-{(2S,3R)-2-[4-(5-cyano-2-thienyl)phenyl]tetrahydro-2H-pyran-3-yl}propane-2-sulfonamide] | > 31.6
8 | CC(C)S(=O)(=O)N[C@H]1CCOC[C@@H]1c1ccc(-c2cccnc2)cc1 [Example 36, N-[(3R,4S)-3-(4-pyridin-3-ylphenyl)tetrahydro-2H-pyran-4-yl]propane-2-sulfonamide] | > 31.6
9 | CC(C)S(=O)(=O)N[C@@H]1CCOC[C@H]1c1ccc(-c2ccccc2)cc1 [Example 33, N-[(3S,4R)-3-biphenyl-4-yltetrahydro-2H-pyran-4-yl]propane-2-sulfonamide] | > 31.6
10 | CC(C)S(=O)(=O)N[C@@H]1COCC[C@@H]1c1ccc(-c2ccc(C#N)cc2)cc1 [Example 60, N-[(3S,4R)-4-(4′-cyanobiphenyl-4-yl)tetrahydro-2H-pyran-3-yl]propane-2-sulfonamide] | > 31.6
11 | CC(C)S(=O)(=O)N[C@@H]1COCC[C@H]1c1ccc(-c2ccc(C#N)s2)cc1 [Example 19, N-{(3S,4S)-4-[4-(5-cyano-2-thienyl)phenyl]tetrahydro-2H-pyran-3-yl}propane-2-sulfonamide] | > 31.6
12 | CC(C)S(=O)(=O)N[C@H]1COCC[C@H]1c1ccc(-c2ccccc2)cc1 [Example 55, N-[(3R,4S)-4-biphenyl-4-yltetrahydro-2H-pyran-3-yl]propane-2-sulfonamide] | > 31.6
13 | CC(C)S(=O)(=O)N[C@@H]1CCC(=O)N[C@H]1c1ccc(-c2ccccc2C#N)cc1 [Example 52, N-[(2S,3R)-2-(2′-cyanobiphenyl-4-yl)-6-oxopiperidin-3-yl]propane-2-sulfonamide] | > 31.6

Results, then the molecule that gave them:

Row | EC50 [µM] | Structure (SMILES)
14 | 1.24 | CC(C)S(=O)(=O)N[C@H]1CCCO[C@@H]1c1ccc(-c2ccccc2C#N)cc1 [Example 46, N-[(2R,3S)-2-(2′-cyanobiphenyl-4-yl)tetrahydro-2H-pyran-3-yl]propane-2-sulfonamide]
15 | 20.3 | CC(C)S(=O)(=O)N[C@@H]1CCCO[C@H]1c1ccc(-c2ccccc2C#N)cc1 [Example 47, N-[(2S,3R)-2-(2′-cyanobiphenyl-4-yl)tetrahydro-2H-pyran-3-yl]propane-2-sulfonamide]
16 | 4.57 | CCOc1ccccc1-c1ccc([C@@H]2COCC[C@H]2NS(=O)(=O)C(C)C)cc1 [Example 35, N-[(3S,4R)-3-(2′-ethoxybiphenyl-4-yl)tetrahydro-2H-pyran-4-yl]propane-2-sulfonamide]
17 | 7.66 | CC(C)S(=O)(=O)N[C@H]1COCC[C@]1(O)c1ccc(-c2ccccc2)cc1 [Example 5, N-[(3S,4S)-4-biphenyl-4-yl-4-hydroxytetrahydro-2H-pyran-3-yl]propane-2-sulfonamide]
18 | 10.3 | CC(C)S(=O)(=O)N[C@@H]1CCOC[C@@H]1c1ccc(-c2ccccc2C#N)cc1 [Example 23, N-[(3R,4R)-3-(2′-cyanobiphenyl-4-yl)tetrahydro-2H-pyran-4-yl]propane-2-sulfonamide]
19 | 0.669 | CCOc1ccccc1-c1ccc([C@@H]2CCOC[C@@H]2NS(=O)(=O)C(C)C)cc1 [Example 63, N-[(3R,4S)-4-(2′-ethoxybiphenyl-4-yl)tetrahydro-2H-pyran-3-yl]propane-2-sulfonamide]
20 | 0.365 | CC(C)S(=O)(=O)N[C@H]1CCOC[C@@H]1c1ccc(-c2ccccc2)cc1 [Example 2, N-[(3R,4S)-3-biphenyl-4-yltetrahydro-2H-pyran-4-yl]propane-2-sulfonamide]
21 | 2.29 | CC(C)S(=O)(=O)N[C@H]1CCC(=O)N[C@@H]1c1ccc(-c2ccccc2C#N)cc1 [Example 54, N-[(2R,3S)-2-(2′-cyanobiphenyl-4-yl)-6-oxopiperidin-3-yl]propane-2-sulfonamide]
22 | 2.36 | CC(C)S(=O)(=O)N[C@H]1CCC(=O)N[C@@H]1c1ccc(-c2ccc(C#N)s2)cc1 [Example 53, N-{(2R,3S)-2-[4-(5-cyano-2-thienyl)phenyl]-6-oxopiperidin-3-yl}propane-2-sulfonamide]
23 | 0.403 | CCOc1ccccc1-c1ccc([C@H]2CCOC[C@@H]2NS(=O)(=O)C(C)C)cc1 [Example 8, N-[(3R,4R)-4-(2′-ethoxybiphenyl-4-yl)tetrahydro-2H-pyran-3-yl]propane-2-sulfonamide]
24 | 0.429 | CC(C)S(=O)(=O)N[C@H]1CCOC[C@H]1c1ccc(-c2ccccc2C#N)cc1 [Example 22, N-[(3S,4S)-3-(2′-cyanobiphenyl-4-yl)tetrahydro-2H-pyran-4-yl]propane-2-sulfonamide]
25 | > 7.52 | CCOc1ccccc1-c1ccc([C@@H]2NC(=O)CC[C@H]2NS(=O)(=O)C(C)C)cc1 [Example 10, N-[(2S,3R)-2-(2′-ethoxybiphenyl-4-yl)-6-oxopiperidin-3-yl]propane-2-sulfonamide]
26 | 1.84 | CC(C)S(=O)(=O)N[C@H]1COCC[C@@H]1c1ccc(-c2ccccc2)cc1 [Example 16, N-[(3R,4R)-4-biphenyl-4-yltetrahydro-2H-pyran-3-yl]propane-2-sulfonamide]
27 | 9.79 | CC(C)S(=O)(=O)N[C@H]1COCC[C@@H]1c1ccc(-c2ccc(C#N)s2)cc1 [Example 20, N-{(3R,4R)-4-[4-(5-cyano-2-thienyl)phenyl]tetrahydro-2H-pyran-3-yl}propane-2-sulfonamide]
28 | 0.826 | CC(C)S(=O)(=O)N[C@H]1CCOC[C@@H]1c1ccc(-c2ccc(C#N)s2)cc1 [Example 41, N-{(3R,4S)-3-[4-(5-cyano-2-thienyl)phenyl]tetrahydro-2H-pyran-4-yl}propane-2-sulfonamide]
29 | 1.71 | CCOc1ccccc1-c1ccc([C@H]2NC(=O)CC[C@@H]2NS(=O)(=O)C(C)C)cc1 [Example 50, N-[(2R,3S)-2-(2′-ethoxybiphenyl-4-yl)-6-oxopiperidin-3-yl]propane-2-sulfonamide]
30 | 4.45 | CC(C)S(=O)(=O)N[C@H]1CCCO[C@@H]1c1ccc(-c2ccccc2)cc1 [Example 9, N-[(2R,3S)-2-biphenyl-4-yltetrahydro-2H-pyran-3-yl]propane-2-sulfonamide]
